Measurements as given in EPA's CvTdb concentration-time database.

How the values were obtained:
[1] = system: Rat; assay: concentration in kidney after dosing; conditions: 24 h; dosed: Perfluorohexane-1-sulphonic acid – potassium salt; 16 mg/kg; oral; Female; F344
[2] = system: Rat; assay: concentration in plasma after dosing; conditions: dosed: Perfluorohexane-1-sulphonic acid – potassium salt, 4 mg/kg, oral, Male, F344
[3] = system: Rat; assay: concentration in brain after dosing; conditions: 3 h; dosed: Perfluorohexane-1-sulphonic acid – potassium salt; 16 mg/kg; oral; Female; Harlan Sprague Dawley
[4] = system: Rat; assay: concentration in plasma after dosing; conditions: dosed: Pyridine, 5 mg/kg, oral, Male, F344
[5] = system: Rat; assay: concentration in plasma after dosing; conditions: 40 h; dosed: Pyridine; 100 mg/kg; oral; Male; F344
[6] = system: Rat; assay: concentration in plasma after dosing; conditions: 20 min; dosed: Pyridine; 10 mg/kg; oral; Female; Harlan Sprague-Dawley
[7] = system: Rat; assay: concentration in plasma after dosing; conditions: dosed: Pyridine, 25 mg/kg, oral, Male, F344
[8] = system: Rat; assay: concentration in plasma after dosing; conditions: 10 min; dosed: 2,4-Dichlorophenoxyacetic acid; 2.0 mg/kg; iv; Male; Sprague-Dawley
[9] = system: Mouse; assay: concentration in plasma after dosing; conditions: dosed: 2,4-Dichlorophenoxyacetic acid, 1.0 mg/kg, iv, Male, B6C3F1
[10] = system: Rat; assay: concentration in plasma after dosing; conditions: dosed: Methyleugenol, 37 mg/kg, iv, Female, F344
[11] = system: Rat; assay: concentration in plasma after dosing; conditions: dosed: Methyleugenol, 37 mg/kg, oral, Male, F344/N
[12] = system: Rat; assay: concentration in plasma after dosing; conditions: dosed: Methyleugenol, 37 mg/kg, oral, Male, F344/N; remark: listed apart in the source
[13] = system: Rat; assay: concentration in plasma after dosing; conditions: dosed: Methyleugenol, 37 mg/kg, oral, Male, F344/N; remark: listed apart in the source
[14] = system: Rat; assay: concentration in plasma after dosing; conditions: dosed: Methyleugenol, 37 mg/kg, oral, Male, F344/N; remark: listed apart in the source
[15] = system: Rat; assay: concentration in plasma after dosing; conditions: dosed: Methyleugenol, 37 mg/kg, iv, Female, F344; remark: listed apart in the source
[16] = system: Mouse; assay: concentration in plasma after dosing; conditions: 2.5 min; dosed: 2-Hydroxy-4-methoxybenzophenone; 250 mg/kg; oral; Female; B6C3F1
[17] = system: Rat; assay: concentration in plasma after dosing; conditions: dosed: 2-Hydroxy-4-methoxybenzophenone, 500 mg/kg, oral, Female, F344
[18] = system: Rat; assay: concentration in plasma after dosing; conditions: dosed: 2-Hydroxy-4-methoxybenzophenone, 100 mg/kg, oral, Female, F344
[19] = system: Rat; assay: concentration in plasma after dosing; conditions: dosed: 2-Hydroxy-4-methoxybenzophenone, 100 mg/kg, oral, Male, F344
[20] = system: Rat; assay: concentration in brain after dosing; conditions: 2 min; dosed: alpha-Thujone; 50 mg/kg; oral; Male; Harlan Sprague Dawley
[21] = system: Rat; assay: concentration in plasma after dosing; conditions: 0.5 h; dosed: alpha-Thujone; 25 mg/kg; oral; Female; Harlan Sprague Dawley
[22] = system: Rat; assay: concentration in brain after dosing; conditions: 10 min; dosed: alpha-Thujone; 25 mg/kg; oral; Male; Harlan Sprague Dawley
[23] = system: Rat; assay: concentration in brain after dosing; conditions: 2 h; dosed: 76231-76-0; 3.0 mg/kg; iv; Female; F344
[24] = system: Rat; assay: concentration in brain after dosing; conditions: 2 min; dosed: alpha-Thujone; 50 mg/kg; oral; Male; Harlan Sprague Dawley; remark: listed apart in the source
[25] = system: Rat; assay: concentration in brain after dosing; conditions: 12 h; dosed: alpha-Thujone; 50 mg/kg; oral; Male; Harlan Sprague Dawley
[26] = system: Rat; assay: concentration in plasma after dosing; conditions: 6 h; dosed: alpha-Thujone; 25 mg/kg; oral; Male; Harlan Sprague Dawley
[27] = system: Rat; assay: concentration in brain after dosing; conditions: 5 min; dosed: alpha-Thujone; 25 mg/kg; oral; Male; Harlan Sprague Dawley
[28] = system: Rat; assay: concentration in brain after dosing; conditions: 6 h; dosed: alpha-Thujone; 25 mg/kg; oral; Male; Harlan Sprague Dawley
[29] = system: Rat; assay: concentration in brain after dosing; conditions: 5 min; dosed: alpha-Thujone; 50 mg/kg; oral; Female; Harlan Sprague Dawley
[30] = system: Rat; assay: concentration in plasma after dosing; conditions: 3 h; dosed: alpha-Thujone; 50 mg/kg; oral; Female; Harlan Sprague Dawley
[31] = system: Rat; assay: concentration in plasma after dosing; conditions: 10 min; dosed: alpha-Thujone; 25 mg/kg; oral; Male; Harlan Sprague Dawley
[32] = system: Rat; assay: concentration in brain after dosing; conditions: 6 h; dosed: alpha-Thujone; 25 mg/kg; oral; Male; Harlan Sprague Dawley; remark: listed apart in the source
[33] = system: Rat; assay: concentration in plasma after dosing; conditions: 12 h; dosed: Primidone; 130 mg/kg; oral; Female; F344
[34] = system: Rat; assay: concentration in plasma after dosing; conditions: 9 h; dosed: Primidone; 80 mg/kg; oral; Female; F344
[35] = system: Rat; assay: concentration in plasma after dosing; conditions: 3 h; dosed: Primidone; 30 mg/kg; oral; Female; F344
[36] = system: Rat; assay: concentration in plasma after dosing; conditions: 6 h; dosed: Primidone; 130 mg/kg; oral; Female; F344
[37] = system: Rat; assay: concentration in plasma after dosing; conditions: 3 h; dosed: Primidone; 80 mg/kg; oral; Female; F344

O=S(=O)([O-])C(F)(F)C(F)(F)C(F)(F)C(F)(F)C(F)(F)C(F)(F)F.[K+] [Perfluorohexane-1-sulphonic acid – potassium salt]
Conditions | concentration in brain [ng/g] | concentration in kidney [ng/g]
[1] | – | 28100
[3] | 1340 | –

[2]
Conditions | concentration in plasma [ng/mL]
6 h | 28700
192 h | 19100

c1ccncc1 [Pyridine]
concentration in plasma [µg/mL]
Conditions | 0.5 h | 4 h | 5 min | 6 h
[4] | 3.09 | – | – | 1
[7] | – | 15.5 | 4.22 | –

Conditions | concentration in plasma
[5] | 18400 ng/mL
[6] | 3.97 µg/mL

O=C(O)COc1ccc(Cl)cc1Cl [2,4-Dichlorophenoxyacetic acid]
Conditions | concentration in plasma [µg/mL]
[8] | 13.2

[9]
Conditions | concentration in plasma [µg/mL]
0.25 h | 8.22
0.5 h | 6.04
1 h | 3.12
2.5 h | 0.266
3 h | 1.25
5 min | 6.55

C=CCc1ccc(OC)c(OC)c1 [Methyleugenol]
Conditions | concentration in plasma [µg/mL]
[10], 0.25 h | 9.2
[10], 1.5 h | 0.738
[11], 2 h | 0.032
[11], 10 min | 0.268
[12], 1 h | 0.0592
[12], 5 h | 0.0186
[13], 0.5 h | 0.293
[13], 3 h | 0.0219
[14], 2 min | 0.036
[14], 3 h | 0.0461
[15], 0.5 h | 1.52
[15], 0.75 h | 0.768

O=C(c1ccccc1)c1ccc(O)cc1O [2,4-Dihydroxybenzophenone]
Conditions | concentration in plasma [µg/mL]
[16] | 0.0531

concentration in plasma [µg/mL]
Conditions | 0.25 h | 4 h | 10 h | 10 min
[17] | – | – | 0.206 | 0.116
[18] | 0.165 | 0.105 | – | –
[19] | 0.091 | 0.0438 | – | –

CC(C)[C@]12CC(=O)[C@H](C)[C@H]1C2 [alpha-Thujone]
Conditions | concentration in brain [ng/g] | concentration in plasma [ng/mL]
[20] | 385 | –
[21] | – | 305
[22] | 2000 | –
[23] | 19.3 | –
[24] | 23.4 | –
[25] | 107 | –
[26] | – | 42.9
[27] | 1220 | –
[28] | 435 | –
[29] | 105 | –
[30] | – | 303
[31] | – | 872
[32] | 84.6 | –

CCC1(c2ccccc2)C(=O)NCNC1=O [Primidone]
Conditions | concentration in plasma [µg/mL]
[33] | 3.1
[34] | 21.6
[35] | 19.9
[36] | 74.3
[37] | 59.3
